Holding throughout (assay): combination Emax (second highest fraction inhibited in the dose matrix, 72 h); higher = more inhibition; extreme values may be limits of the assay
Assay [1] has as its system HDLM-2 (Hodgkin's Lymphoma). A digest of the protocol:
(§1)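 Cell lines grown in DMEM/F12 or RPMI with 10% FBS were plated in 1536-well plates and held 24 hours at 37°C, 5% CO2 before 72 hours of exposure to two-drug dose matrices, with DMSO typically at 0.2%. CellTiter-Glo 2.0 luminescence gave viability, which was converted to inhibition. Vehicle wells were set to 0 and blank wells to 1. Combination Emax is the second-highest inhibition in the matrix, and Bliss excess is the observed combination effect minus the expected EA + EB − EA·EB, where EA and EB are the single-agent effects.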

Assay [2] deals with CTB-1 (B-Cell Non-Hodgkin's Lymphoma). A digest of the protocol:
as §1

In assay [3] the test system is OVCAR-8 (Ovarian Carcinoma). Put shortly: as §1
Assay [4] has as its system SW626 (Colorectal Carcinoma). Put shortly: as §1
Assay [5] deals with MHH-PREB-1 (B-Cell Non-Hodgkin's Lymphoma). A digest of the protocol: as §1
Assay [6] concerns LU-139 (Small Cell Lung Carcinoma). A digest of the protocol:
as §1

Assay [7] has as its system NCI-H747 (Colorectal Carcinoma). A digest of the protocol: as §1
In assay [8] the test system is RKO (Colorectal Carcinoma). Put shortly: as §1
Assay [9] relates to SK-OV-3 (Ovarian Carcinoma). A digest of the protocol: as §1
In assay [10] the test system is SW1271 (Small Cell Lung Carcinoma). A digest of the protocol:
as §1

In assay [11] the test system is RPMI-6666 (Non-Cancerous). A digest of the protocol:
as §1

The subject of assay [12] is CAL-54 (Kidney Carcinoma). A digest of the protocol: as §1
For assay [13], the system named is NCI-H69 (Small Cell Lung Carcinoma). A digest of the protocol: as §1
The test system of assay [14] is LB771-HNC (Head and Neck Carcinoma). A digest of the protocol: as §1
Assay [15] deals with OC-314 (Ovarian Carcinoma). A digest of the protocol: as §1
The next assay deals with NB14 (Neuroblastoma). Put shortly: as §1
The test system of assay [16] is K5 (Thyroid Gland Carcinoma). Put shortly: as §1
Assay [17] relates to 8305C (Thyroid Gland Carcinoma). Put shortly:
as §1

Assay [18] deals with 639-V (Bladder Carcinoma). Put shortly: as §1
Assay [19] relates to HARA (Squamous Cell Lung Carcinoma). A digest of the protocol: as §1

As to `COc1cc2c(cc1OCCCCCOc1cc3c(cc1OC)C(=O)N1C=C(C)C[C@H]1C=N3)N=C[C@@H]1CC(C)=CN1C2=O` [SG3199] + O=C(c1cc(Cc2n[nH]c(=O)c3ccccc23)ccc1F)N1CCN(C(=O)C2CC2)CC1 [Olaparib] (first compound max 0.001 µM, 7x7, partner max 10 µM), the “combination Emax” value in assay [1] came out at 0.167; in assay [2], 0.28; in assay [3] it was 0.268; in assay [4], 0.102; in [5], 0.13; in assay [6], 0.174. Further, the “combination Emax” value in [7] amounted to 0.0668; in [8] it was 0.114; in assay [9], 0.0705; in assay [10], 0.18; in [11], 0.501; in [12] it was 0.121. For the same molecule, the “combination Emax” value in assay [13] stood at 0.242; in assay [14], 0.181; in [15] it was 0.205; in the assay with NB14 (Neuroblastoma), 0.42; in assay [16], 0.196; in [17], 0.141. The entries for the “combination Emax” value in [18] and in assay [19] were 0.201 and 0.174, respectively.
In the case of `Cc1c2c(nn1C)CSCc1cc(n(C)n1)CSc1cc(c3ccccc3c1)OCCCc1c(C(=O)O)n(C)c3c-2c(Cl)ccc13` [AZD5991] + CCN(CCO)CCCOc1ccc2c(Nc3cc(CC(=O)Nc4cccc(F)c4)[nH]n3)ncnc2c1 [AZD2811] (first compound max 1 µM, 7x7, partner max 1 µM), the “combination Emax” value in assay [1] worked out at 0.978; in [2], 0.641; in [3], 0.42; in assay [4] it was 0.325; in assay [5], 0.144; in assay [6], 0.409. Also, the “combination Emax” value was 0.311 in assay [7]; 0.349 in assay [8]; 0.301 in assay [9]; 0.176 in assay [10]; 0.797 in assay [11]; 0.234 in [12]. The “combination Emax” value in assay [13] stood at 0.623; in [14], 0.591; in assay [15], 0.449; with NB14 (Neuroblastoma), 0.953; in assay [16], 0.298; in assay [17] it was 0.365. For the same molecule, the figures for the “combination Emax” value in assay [18] and in assay [19] were 0.368 and 0.776, respectively.
In the case of `Cc1cc2ncnn2cc1Nc1ncc2c(n1)n(C1CCOCC1)c(=O)n2C` [AZD7648] + CN(C)CCCOc1ccc(-c2ccc3ncc4c(c3c2)n(C2CCOCC2)c(=O)n4C)cn1 [AZD0156] (first compound max 10 µM, 7x7, partner max 1 µM), the “combination Emax” value in assay [1] was 0.368; in assay [2], 0.404; in assay [3] it was 0.213; in assay [4], 0.284; in assay [5], 0.511; in assay [6], 0.228. Besides, the “combination Emax” value in assay [7] came to 0.387; in [8] it was 0.391; in [9], 0.403; in assay [10], 0.327; in assay [11] it was 0.359; in [12], 0.353. Moreover, the “combination Emax” value was 0.355 in assay [13]; 0.299 in assay [14]; 0.348 in [15]; 0.407 in the assay with NB14 (Neuroblastoma); 0.501 in assay [16]; 0.414 in assay [17]. Further, the entries for the “combination Emax” value in assay [18] and in assay [19] were 0.239 and 0.283, respectively.
On to `CN(CCO)CC[C@H](CSc1ccccc1)Nc1ccc(S(=O)(=O)NC(=O)c2ccc(N3CCC([C@@H](O)c4ccccc4-c4ccc(Cl)cc4)CC3)cc2)cc1S(=O)(=O)C(F)(F)F` [AZD4320] + C[C@@H]1COCCN1C2=NC(=NC(=C2)C3(CC3)[S@](=N)(=O)C)C4=C5C=CNC5=NC=C4 [AZD6738] (first compound max 1 µM, 7x7, partner max 10 µM), for which the “combination Emax” value in assay [1] turned out to be 0.926; in [2] it was 0.768; in [3], 0.796; in assay [4], 0.869; in [5], 0.754; in assay [6], 0.929. Also, the “combination Emax” value stood at 0.333 in assay [7]; 0.85 in assay [8]; 0.66 in [9]; 0.733 in [10]; 0.989 in assay [11]; 0.835 in [12]. Also, the “combination Emax” value in assay [13] is 0.927; in assay [14], 0.6; in assay [15], 0.909; with NB14 (Neuroblastoma), 1; in [16], 0.702; in assay [17], 0.834. Besides, the “combination Emax” value in [18] came to 0.665; in [19] it was 0.884.
As to `COc1cccc(OCCCN)c1-c1cc(Nc2cnc(C#N)cn2)n[nH]1` [Prexasertib] + CN(C)CCCOc1ccc(-c2ccc3ncc4c(c3c2)n(C2CCOCC2)c(=O)n4C)cn1 [AZD0156] (first compound max 1 µM, 7x7, partner max 1 µM), the “combination Emax” value in assay [1] turned out to be 0.512; in assay [2], 0.96; in assay [3], 0.988; in assay [4], 0.707; in [5] it was 0.974; in assay [6], 0.505. In addition, the “combination Emax” value in assay [7] was 0.37; in assay [8], 0.891; in [9], 0.853; in [10], 0.678; in [11], 0.977; in [12], 0.863. The “combination Emax” value in assay [13] amounted to 0.582; in assay [14], 0.587; in assay [15], 0.962; with NB14 (Neuroblastoma), 1; in [16], 0.767; in assay [17], 0.737. Further, the “combination Emax” value in assay [18] worked out at 0.446; in assay [19], 0.986.
`CC(=O)Nc1cccc(-n2c(=O)n(C3CC3)c(=O)c3c(Nc4ccc(I)cc4F)n(C)c(=O)c(C)c32)c1` [Trametinib] + Cc1nc(-c2cn3c(n2)-c2ccc(-c4cnn(C(C)(C)C(N)=O)c4)cc2OCC3)n(C(C)C)n1 [Taselisib] (first compound max 1 µM, 7x7, partner max 10 µM): the “combination Emax” value in [1] worked out at 0.362; in assay [2] it was 0.416; in [3] it was 0.594; in [4], 0.75; in [5], 0.271; in assay [6] it was 0.143. The “combination Emax” value amounted to 0.952 in assay [7]; 0.956 in assay [8]; 0.797 in [9]; 0.653 in assay [10]; 0.675 in assay [11]; 0.763 in [12]. Further, the “combination Emax” value amounted to 0.688 in [13]; 0.895 in [14]; 0.707 in assay [15]; 0.822 in the assay on NB14 (Neuroblastoma); 1 in assay [16]; 0.945 in [17]. Besides, the figures for the “combination Emax” value in [18] and in [19] were 0.718 and 0.818, respectively.
`C=CCn1c(=O)c2cnc(Nc3ccc(N4CCN(C)CC4)cc3)nc2n1-c1cccc(C(C)(C)O)n1` [AZD1775] + C[C@@H]1COCCN1C2=NC(=NC(=C2)C3(CC3)[S@](=N)(=O)C)C4=C5C=CNC5=NC=C4 [AZD6738] (first compound max 1 µM, partner max 10 µM): the “combination Emax” value turned out to be 0.772 in assay [1]; 0.944 in assay [2]; 0.966 in [3]; 0.743 in assay [4]; 0.948 in [5]; 0.721 in assay [6]. For the same molecule, the “combination Emax” value in [7] came to 0.706; in assay [8], 0.943; in assay [9] it was 0.755; in [10], 0.637; in assay [12], 0.759; in assay [13] it was 0.849. For the same molecule, the “combination Emax” value turned out to be 0.536 in assay [14]; 0.941 in assay [15]; 1 in the assay on NB14 (Neuroblastoma); 0.749 in [16]; 0.681 in [17]; 0.457 in assay [18]. Moreover, the “combination Emax” value in assay [19] was determined as 0.906.

The values are drawn from the supplement of paper PMC11061612.
